Data as given in patent US20130259830A1, “CRTH2 MODULATORS” (Ironwood Pharmaceuticals, Inc., priority 2010, published 2013).

Legend:
CRTH2 [1] = target: T1, CRTH2 (Homo sapiens, UniProt Q9Y5Y4); experiment: Human whole blood CD11b antagonist assay (CD11b expression in eosinophils challenged with 15-R-methyl-PGD2); assay type: cell-based; settings: 37° C. 10 minutes preincubation, agonist 15R-Methyl-PGD2 10 nM, eosinophils gated by flow cytometry
T1 construct: endogenous in cells; host or cells: eosinophils in human whole blood
T1 sequence (Q9Y5Y4 1-395): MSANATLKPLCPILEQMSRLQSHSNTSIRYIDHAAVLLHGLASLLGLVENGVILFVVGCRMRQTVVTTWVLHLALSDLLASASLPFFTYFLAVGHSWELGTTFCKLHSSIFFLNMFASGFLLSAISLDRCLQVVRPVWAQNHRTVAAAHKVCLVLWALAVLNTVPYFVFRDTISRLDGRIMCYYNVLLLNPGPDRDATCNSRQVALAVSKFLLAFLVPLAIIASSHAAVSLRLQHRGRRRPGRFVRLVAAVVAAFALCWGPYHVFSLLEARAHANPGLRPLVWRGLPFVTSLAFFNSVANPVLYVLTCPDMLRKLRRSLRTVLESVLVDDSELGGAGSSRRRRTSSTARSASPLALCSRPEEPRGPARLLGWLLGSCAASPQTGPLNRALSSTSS
Experimental: Human Whole Blood […] Antagonist Assay (Modified from Nicholson, et al. Pulmonary Pharmacology and Therapeutics: 20 (2007); 52-59).
The potential CRTH2 antagonist activity of certain compounds was tested in human whole blood using an assay that tests the ability of the compounds to block the CD11b expression in eosinophils by 15-R-methyl-PGD2. A CRTH2 antagonist should block CD11b expression by subsequently added 15-Methyl-PGD2. Human whole blood (200 μL) was incubated at 37° C. for 10 minutes in the presence of various concentrations of test compounds before being challenged with the agonist 1-5R-Methyl-PGD2 (10 nM). Reactions were terminated by the addition of ice-cold PBS+0.5% BSA+2 mM EDTA (1 mL) and centrifugation (300×g for 5 minutes at 4° C.) Cells were then incubated at 4° C. for 10 min in the presence of human IgG. Cells were then incubated for 30-45 min with a mixture of PE-Cy5-labeled mouse anti-human CD16 (10 ul; BD Biosciences) and FITC-labeled mouse anti-human CD11b (10 μL; Beckman Coulter.) After rinsing (1 mL ice-cold PBS+0.5% BSA+2 mM EDTA), red blood cells were lysed by the addition of 1 mL ice-cold H2O to the cell pellet for 30 sec-1 min immediately followed by the addition of 3.5% NaCl (300 μL.) Cells were then rinsed (2×−1 ml ice cold PBS+0.5% BSA+2m MEDTA) and fixed in PBS containing 1% formaldehyde. The distribution of fluorescence intensities was measured by flow cytometry. Eosinophils were gated out on the basis of their granularity (high side scatter) and absence of CD-16. CD11b was then measured on this eosinophil population on the basis of fluorescence due to FITC.

CRTH2 [2] = target: T1, CRTH2; experiment: DPBS CD11b antagonist assay (CD11b expression in eosinophils challenged with 15R-Methyl-PGD2); assay type: cell-based; settings: polymorphonuclear cells in PBS with CaCl2/MgCl2; agonist 15R-Methyl-PGD2 10 nM; eosinophils gated by flow cytometry
Experimental: DPBS CD111b Antagonist Assay.
The potential CRTH2 antagonist, activity of certain compounds was tested using a CD11b expression assay using essentially the method described by Monneret et al. (J Pharmacol Exp Ther 304:349-55, 2003). Briefly, polymorphonuclear cells (0.5 ml; 10^6/ml cells) in PBS containing 0.9 mM CaCl2 and 0.5 mM MgCl2) were preincubated with various concentrations of test compounds at room temperature for 10 minutes before they were challenged with the agonist 15R-Methyl-PGD2 (10 nM). The incubations were terminated by the addition of ice-cold FACSFlow (BD Biosciences; Cat#342003) and centrifugation (400 g for 5 minutes at 4° C.). The cells were then incubated for 30 minutes at 4° C. with a mixture of PE-labeled mouse anti-human VLA-4 (5 μl; BD Biosciences) and FITC-labeled mouse anti-human CD11b (10 μl; Beckman Coulter). The cells were then incubated with Optilyse C (0.25 ml; Beckman Coulter) for 15 minutes, centrifuged, and then fixed in PBS (0.4 ml; calcium and magnesium free) containing 1% formaldehyde. The distribution of fluorescence intensities among 60,000 cells was measured by flow cytometry. Eosinophils were gated out on the basis of their granularity (high side scatter) and labeling with VLA-4 (PE fluorescence). CD11b was then measured in the eosinophil region on the basis of fluorescence due to FITC. All data were corrected for the value obtained for the corresponding isotope control antibody.

Structure (SMILES)	IC50 (CRTH2 [1])	IC50 (CRTH2 [2])
Cc1c(Cc2ccccc2NS(=O)(=O)N2CCCC2)c2c(n1CC(=O)O)CC(C)(C)CC2=O [Compound I-47]	20 to 100 nM	5 to 20 nM
Cc1c(Cc2ccccc2NS(=O)(=O)c2ccc(OCc3ccccc3)cc2)c2c(n1CC(=O)O)CC(C)(C)CC2=O [Compound I-46, 2-(3-(2-(4-(Benzyloxy)phenylsulfonamido)benzyl)-2,6,6-trimethyl-4-oxo-4,5,6,7-tetrahydro-1H-indol-1-yl)acetic acid]	5 to 20 nM	< 1 nM
Cc1c(Cc2ccc(S(=O)(=O)c3ccccc3)s2)c2c(n1CC(=O)O)CC(C)(C)CC2=O [Compound I-26, 2-(2,6,6-Trimethyl-4-oxo-3-((5-(phenylsulfonyl)thiophen-2-yl)methyl)-4,5,6,7-tetrahydro-1H-indol-1-yl)acetic acid]	> 3000 nM	100 to 500 nM
Cc1c(Cc2ccccc2S(=O)(=O)N2CCCC2)c2c(n1CC(=O)O)CC(C)(C)C/C2=N\OC(C)(C)C [Compound I-30, (E)-2-(4-(tert-Butoxyimino)-2,6,6-trimethyl-3-(2-(pyrrolidin-1-ylsulfonyl)benzyl)-4,5,6,7-tetrahydro-1H-indol-1-yl)acetic acid]	100 to 500 nM	1 to 5 nM
Cc1ccc(S(=O)(=O)N(C)c2cccc(Cc3c4c(n(CC(=O)O)c3C)CC(C)(C)CC4=O)c2)cc1 [Compound I-45, 2-(3-(3-(N,4-Dimethylphenylsulfonamido)benzyl)-2,6,6-trimethyl-4-oxo-4,5,6,7-tetrahydro-1H-indol-1-yl)acetic acid]	> 3000 nM	100 to 500 nM
Cc1c(Cc2ccccc2N(C)S(=O)(=O)c2ccccc2)c2c(n1CC(=O)O)CC(C)(C)CC2=O [Compound I-35, 2-(2,6,6-Trimethyl-3-(2-(N-methylphenylsulfonamido)benzyl)-4-oxo-4,5,6,7-tetrahydro-1H-indol-1-yl)acetic acid]	20 to 100 nM	1 to 5 nM
Cc1ccc(S(=O)(=O)N(C)c2ccccc2Cc2c3c(n(CC(=O)O)c2C)CC(C)(C)CC3=O)cc1 [Compound I-33, 2-(3-(2-(N,4-dimethylphenylsulfonamido)benzyl)-2,6,6-trimethyl-4-oxo-4,5,6,7-tetrahydro-1H-indol-1-yl)acetic acid]	100 to 500 nM	1 to 5 nM
Cc1c(Cc2ccccc2NS(=O)(=O)N2CCOCC2)c2c(n1CC(=O)O)CC(C)(C)CC2=O [Compound I-49]	20 to 100 nM	1 to 5 nM
Cc1c(Cc2ccccc2N(C)S(=O)(=O)N2CCCC2)c2c(n1CC(=O)O)CC(C)(C)CC2=O [Compound I-43, 2-(2,6,6-Trimethyl-3-(2-(N-methylpyrrolidine-1-sulfonamido)benzyl)-4-oxo-4,5,6,7-tetrahydro-1H-indol-1-yl)acetic acid]	20 to 100 nM	5 to 20 nM
CCN(c1ccccc1Cc1c2c(n(CC(=O)O)c1C)CC(C)(C)CC2=O)S(=O)(=O)c1ccc(C)cc1 [Compound I-38, 2-(3-(2-(N-Ethyl-4-methylphenylsulfonamido)benzyl)-2,6,6-trimethyl-4-oxo-4,5,6,7-tetrahydro-1H-indol-1-yl)acetic acid]	500 to 3000 nM	1 to 5 nM
Cc1c(Cc2ccccc2S(=O)(=O)N2CCCC2)c2c(n1CC(=O)O)CC(C)(C)C/C2=N\OCc1ccccc1 [Compound I-31, (E)-2-(4-(Benzyloxyimino)-2,6,6-trimethyl-3-(2-(pyrrolidin-1-ylsulfonyl)benzyl)-4,5,6,7-tetrahydro-1H-indol-1-yl)acetic acid]	100 to 500 nM	1 to 5 nM
Cc1c(Sc2ccccc2N(C)S(=O)(=O)c2ccccc2)c2c(n1CC(=O)O)CC(C)(C)CC2 [Compound I-53, 2-(2,6,6-trimethyl-3-(2-(N-methylphenylsulfonamido)phenylthio)-4,5,6,7-tetrahydro-1H-indol-1-yl)acetic acid]	500 to 3000 nM	
Cc1c(Cc2cc3ccccc3n2S(=O)(=O)c2ccccc2)c2c(n1CC(=O)O)CCC(C)(C)C2 [Compound I-1, 2-(2,5,5-trimethyl-3-((1-(phenylsulfonyl)-1H-indol-2-yl)methyl)-4,5,6,7-tetrahydro-1H-indol-1-yl)acetic acid]		< 1 nM

The remaining lines, values ahead:

IC50 (CRTH2 [1])	IC50 (CRTH2 [2])	Structure (SMILES)
20 to 100 nM	1 to 5 nM	Cc1c(Cc2cccnc2S(=O)(=O)c2ccc(F)cc2F)c2c(n1CC(=O)O)CC(C)(C)CC2=O [Compound I-19, 2-(3-((2-(2,4-Difluorophenylsulfonyl)pyridin-3-yl)methyl)-2,6,6-trimethyl-4-oxo-4,5,6,7-tetrahydro-1H-indol-1-yl)acetic acid]
500 to 3000 nM	100 to 500 nM	Cc1c(Cc2cccnc2S(=O)(=O)c2ccc(C(F)(F)F)cc2)c2c(n1CC(=O)O)CC(C)(C)CC2=O [Compound I-12, 2-(2,6,6-Trimethyl-4-oxo-3-((2-(4-(trifluoromethyl)phenylsulfonyl)pyridin-3-yl)methyl)-4,5,6,7-tetrahydro-1H-indol-1-yl)acetic acid]
5 to 20 nM	< 1 nM	Cc1c(Cc2cccnc2S(=O)(=O)c2ccc(F)cc2)c2c(n1CC(=O)O)CC(C)(C)CC2=O [Compound I-5, 2-(3-((2-(4-fluorophenylsulfonyl)pyridin-3-yl)methyl)-2,6,6-trimethyl-4-oxo-4,5,6,7-tetrahydro-1H-indol-1-yl)acetic acid]
20 to 100 nM	< 1 nM	COc1ccc(S(=O)(=O)c2ncccc2Cc2c3c(n(CC(=O)O)c2C)CC(C)(C)CC3=O)cc1 [Compound I-7, 2-(3-((2-(4-methoxyphenylsulfonyl)pyridin-3-yl)methyl)-2,6,6-trimethyl-4-oxo-4,5,6,7-tetrahydro-1H-indol-1-yl)acetic acid]
100 to 500 nM	100 to 500 nM	Cc1c(Cc2cccnc2S(=O)(=O)C2CC2)c2c(n1CC(=O)O)CC(C)(C)CC2=O [Compound I-4, 2-(3-((2-(cyclopropylsulfonyl)pyridin-3-yl)methyl)-2,6,6-trimethyl-4-oxo-4,5,6,7-tetrahydro-1H-indol-1-yl)acetic acid]
500 to 3000 nM	100 to 500 nM	CCOC(=O)Cn1c(C)c(Cc2cccnc2S(=O)(=O)c2ccc(Cl)cc2)c2c1CC(C)(C)CC2=O [Compound I-14, Ethyl 2-(3-((2-(4-chlorophenylsulfonyl)pyridin-3-yl)methyl)-2,6,6-trimethyl-4-oxo-4,5,6,7-tetrahydro-1H-indol-1-yl)acetate]
500 to 3000 nM	20 to 100 nM	CCOC(=O)Cn1c(C)c(Cc2cccnc2S(=O)(=O)c2ccc(F)cc2)c2c1CC(C)(C)CC2=O [Compound I-8, ethyl 2-(3-((2-(4-fluorophenylsulfonyl)pyridin-3-yl)methyl)-2,6,6-trimethyl-4-oxo-4,5,6,7-tetrahydro-1H-indol-1-yl)acetate]
20 to 100 nM	1 to 5 nM	COc1cccc(S(=O)(=O)c2ncccc2Cc2c3c(n(CC(=O)O)c2C)CC(C)(C)CC3=O)c1 [Compound I-13, 2-(3-((2-(3-Methoxyphenylsulfonyl)pyridin-3-yl)methyl)-2,6,6-trimethyl-4-oxo-4,5,6,7-tetrahydro-1H-indol-1-yl)acetic acid]
